Assay results reported in patent US20200131156A1, “ARYLSULFONYLPYROLECARBOXAMIDE DERIVATIVES AS Kv3 POTASSIUM CHANNEL ACTIVATORS” (H. Lundbeck A/S, priority 2018, published 2020).
Where two headings read alike, the source gives them in different places. One block for each compound: values may come before it.

Legend:
[1] = Unbound fraction in brain (mouse PK table footnote); type: in vitro ADME
[2] = Unbound fraction in brain; type: in vitro ADME, rat
[3] = Unbound fraction in plasma (mouse PK table footnote); type: in vitro ADME
[4] = In vivo pharmacokinetic time profile in rats (plasma and brain); conditions: rat; for Cmax / half-life / Kp: male, Sprague Dawley; for Cmax / half-life: plasma; for Cmax: vehicle 10% HP-betaCD; for half-life: read-out: T½ (converted); for Kp: brain, read-out: measured brain/plasma ratio
Protocol: Male Sprague Dawley rats or male C57 mice from SLAC Laboratory Animal Co. Ltd., Shanghai, China or SIPPR/BK Laboratory Animal Co. Ltd., Shanghai, China were used for pharmacokinetic studies. Animals were group housed during acclimation and individually housed during in-life. The animal room environment was controlled (conditions: temperature 20 to 26° C., relative humidity 30 to 70%, 12 hours artificial light and 12 hours dark) and all animals have access to Certified Rodent Diet (Beijing KEAO XIELI Feed Co., Ltd. Beijing, P.R. China.) ad libitum. Animals were deprived of food overnight prior to dosing and fed approximately 4 hours post-dosing. Water was autoclaved before provided to the animals ad libitum.
For oral dosing, the dose formulation was administered via oral gavage.
Animals were anesthetized via isoflurane. At terminal time point, about 200 μL blood was collected from cardiac puncture or abdominal vein. All blood samples were transferred into microcentrifuge tubes containing 5 μL of K2EDTA (0.5 M) as anti-coagulant and placed on wet ice until processed for plasma by centrifugation (3,000 rpm for 5 minutes at 2 to 8° C.) within half an hour of collection and kept at −70±10° C. until LC/MSMS analysis
After blood collection, brain was harvested and washed twice with cold deionized water, and blotted on filter paper, weighted and frozen until processed. Brain samples were thawed and homogenized with 4-fold of cold water using Covaris (peak power 450.0, Duty Factor 20.0, Cycles/Burst 200). for 3 min, vortex for 10 second every 1 min. Samples were further stored at −79° C. (dilution factor=5) until bioanalysis

hKv7.2/7.3 = hKv7.2/7.3 (Homo sapiens, UniProt O43525+O43526); assay: Off-target Kv7.2/7.3 activation, fluorescence-based ion flux assay (FDSS); type: cell-based; conditions: up to 30 μM
Protocol: The activity of selected compound examples at three key ion channel off targets was measured, namely Nav1.1, Kv1.1/1.2 and Kv7.2/7.3.
Effects of selected examples on activation of the voltage gated heteromeric potassium channel Kv7.2/7.3 was tested in a fluorescence-based ion flux assay at concentrations up to 30 μM.

[5] = 3 mg/mg, SC administration, dose 3 (mg/mg [sic])
[6] = 30 mg/mg, SC administration, dose 30 (mg/mg [sic])
[7] = PO administration, dose 3 (mg/mg)
[8] = PO administration, dose 30 (mg/mg)
[9] = SC administration, dose 3 (mg/mg)
[10] = SC administration, dose 10 (mg/mg)

- fraction unbound [1]: 0.11
- fraction unbound ([2]; rat table footnote): 0.12
- fraction unbound [3]: 0.08
- Cmax [4, 5]: 1100 ng/mL
- half-life [4, 5]: 18 min
- Cmax [4, 6]: 7620 ng/mL
- half-life [4, 6]: 24 min
- Kp ([4]; subcutaneous): 0.25
- Estimated unbound brain Cmax ([4]; SC, dose 3 (mg/mg [sic]), based on brain/plasma ratio 0.25 and unbound fraction in brain 12%): 95 nM
- Unbound plasma, Cmax ([4]; SC, dose 3 (mg/mg [sic]), unbound fraction in plasma 12%): 380 nM
- Estimated unbound brain Cmax ([4]; SC, dose 30 (mg/mg [sic]), based on brain/plasma ratio 0.25 and unbound fraction in brain 12%): 663 nM
- Unbound plasma, Cmax ([4]; SC, dose 30 (mg/mg [sic]), unbound fraction in plasma 12%): 2650 nM
- EC50 (hKv7.2/7.3): > 30 µM
Compound: Cc1ccc(S(=O)(=O)n2ccc(C(=O)NCc3ncco3)c2)cc1 [Compound 86, 1-(4-methylbenzene-1-sulfonyl)-N-[(1,3-oxazol-2-yl)methyl]-1H-pyrrole-3-carboxamide]

- fraction unbound [1]: 0.1
- fraction unbound ([2]; rat PK table footnote): 0.08
- fraction unbound [3]: 0.1
- Cmax [4, 7]: 627 ng/mL
- half-life [4, 7]: 120 min
- Cmax [4, 8]: 3940 ng/mL
- half-life [4, 8]: 66 min
- Cmax [4, 9]: 427 ng/mL
- half-life [4, 9]: 48 min
- Cmax [4, 10]: 1370 ng/mL
- half-life [4, 10]: 42 min
- Kp [4]: 0.5
- Estimated unbound brain Cmax ([4]; PO, dose 3 (mg/mg), based on brain/plasma ratio 0.5 and unbound fraction in brain 8%): 65 nM
- Unbound plasma, Cmax ([4]; PO, dose 3 (mg/mg), unbound fraction in plasma 10%): 160 nM
- Estimated unbound brain Cmax ([4]; PO, dose 30 (mg/mg), based on brain/plasma ratio 0.5 and unbound fraction in brain 8%): 406 nM
- Unbound plasma, Cmax ([4]; PO, dose 30 (mg/mg), unbound fraction in plasma 10%): 1015 nM
- Estimated unbound brain Cmax ([4]; SC, dose 3 (mg/mg), based on brain/plasma ratio 0.5 and unbound fraction in brain 8%): 44 nM
- Unbound plasma, Cmax ([4]; SC, dose 3 (mg/mg), unbound fraction in plasma 10%): 110 nM
- Estimated unbound brain Cmax ([4]; SC, dose 10 (mg/mg), based on brain/plasma ratio 0.5 and unbound fraction in brain 8%): 142 nM
- Unbound plasma, Cmax ([4]; SC, dose 10 (mg/mg), unbound fraction in plasma 10%): 353 nM
- EC50 (hKv7.2/7.3): > 30 µM
Compound: Cc1cnc(CNC(=O)c2ccn(S(=O)(=O)c3ccc(F)cc3C)c2)cn1 [Compound 90, 1-(4-fluoro-2-methylbenzene-1-sulfonyl)-N-[(5-methylpyrazin-2-yl)methyl]-1H-pyrrole-3-carboxamide]
